#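 Interpolation was linear, between the two tested concentrations surrounding the appropriate level; five concentrations were tested over 48 hours in 96-well plates. GI50: concentration for 50% inhibition of growth.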 Activity calls are given as the source filed them. No stated cut-off is given here; in the data, active = GI50 up to about 1.1 µM and inactive = higher.
# How the values were obtained:
# Assay in all cases: NCI anticancer screen, dose series, 48 h
# 786-0 = tested on: 786-0
# A498 = tested on: A498
# A549 = tested on: A549
# ACHN = tested on: ACHN
# CAKI-1 = tested on: CAKI-1
# CCRF-CEM = tested on: CCRF-CEM
# COLO 205 = tested on: COLO 205
# DLD-1 = tested on: DLD-1
# DMS-114 = tested on: DMS-114
# DMS-273 = tested on: DMS-273
# EKVX = tested on: EKVX
# HCC 2998 = tested on: HCC 2998
# HCT-116 = tested on: HCT-116
# HCT-15 = tested on: HCT-15
# HL-60 = tested on: HL-60
# HOP-18 = tested on: HOP-18
# HOP-62 = tested on: HOP-62
# HOP-92 = tested on: HOP-92
# HT-29 = tested on: HT-29
# IGROV-1 = tested on: IGROV-1
# K562 = tested on: K562
# KM12 = tested on: KM12
# LXFL 529 = tested on: LXFL 529
# M14 = tested on: M14
# M19-MEL = tested on: M19-MEL
# MOLT-4 = tested on: MOLT-4
# Malme-3M = tested on: Malme-3M
# NCI-H226 = tested on: NCI-H226
# NCI-H23 = tested on: NCI-H23
# NCI-H460 = tested on: NCI-H460
# NCI-H522 = tested on: NCI-H522
# OVCAR-3 = tested on: OVCAR-3
# OVCAR-4 = tested on: OVCAR-4
# OVCAR-5 = tested on: OVCAR-5
# OVCAR-8 = tested on: OVCAR-8
# RPMI-8226 = tested on: RPMI-8226
# SF-268 = tested on: SF-268
# SF-295 = tested on: SF-295
# SF-539 = tested on: SF-539
# SK-MEL-28 = tested on: SK-MEL-28
# SK-MEL-2 = tested on: SK-MEL-2
# SK-MEL-5 = tested on: SK-MEL-5
# SK-OV-3 = tested on: SK-OV-3
# SN12C = tested on: SN12C
# SNB-19 = tested on: SNB-19
# SNB-75 = tested on: SNB-75
# SNB-78 = tested on: SNB-78
# SR = tested on: SR
# SW-620 = tested on: SW-620
# TK-10 = tested on: TK-10
# U-251 = tested on: U-251
# UACC-257 = tested on: UACC-257
# UACC-62 = tested on: UACC-62
# UO-31 = tested on: UO-31
# KM-20L2 = tested on: KM-20L2
# LOX IMVI = tested on: LOX IMVI
# RXF 393 = tested on: RXF 393
compound,measurement,setting,value
CCCCC1CC(c2ccc(Cl)cc2)=NO1 (stereo not given),GI50,786-0,> 100 µM (inactive)
same,GI50,A498,> 100 µM (inactive)
same,GI50,A549,> 100 µM (inactive)
same,GI50,ACHN,> 100 µM (inactive)
same,GI50,CAKI-1,> 100 µM (inactive)
same,GI50,CCRF-CEM,> 100 µM (inactive)
same,GI50,COLO 205,> 100 µM (inactive)
same,GI50,DLD-1,> 100 µM (inactive)
same,GI50,DMS-114,> 100 µM (inactive)
same,GI50,DMS-273,> 100 µM (inactive)
same,GI50,EKVX,> 100 µM (inactive)
same,GI50,HCC 2998,> 100 µM (inactive)
same,GI50,HCT-116,> 100 µM (inactive)
same,GI50,HCT-15,> 100 µM
same,GI50,HL-60,85.3 µM (inactive)
same,GI50,HOP-18,> 100 µM (inactive)
same,GI50,HOP-62,> 100 µM (inactive)
same,GI50,HOP-92,> 100 µM (inactive)
same,GI50,HT-29,> 100 µM (inactive)
same,GI50,IGROV-1,> 100 µM (inactive)
same,GI50,K562,> 100 µM (inactive)
same,GI50,KM12,> 100 µM (inactive)
same,GI50,LXFL 529,> 100 µM (inactive)
same,GI50,M14,> 100 µM (inactive)
same,GI50,M19-MEL,> 100 µM (inactive)
same,GI50,MOLT-4,> 100 µM (inactive)
same,GI50,Malme-3M,> 100 µM (inactive)
same,GI50,NCI-H226,> 100 µM (inactive)
same,GI50,NCI-H23,> 100 µM (inactive)
same,GI50,NCI-H460,> 100 µM (inactive)
same,GI50,NCI-H522,> 100 µM (inactive)
same,GI50,OVCAR-3,> 100 µM (inactive)
same,GI50,OVCAR-4,> 100 µM (inactive)
same,GI50,OVCAR-5,> 100 µM (inactive)
same,GI50,OVCAR-8,> 100 µM (inactive)
same,GI50,RPMI-8226,> 100 µM (inactive)
same,GI50,SF-268,> 100 µM (inactive)
same,GI50,SF-295,> 100 µM (inactive)
same,GI50,SF-539,> 100 µM (inactive)
same,GI50,SK-MEL-28,> 100 µM (inactive)
same,GI50,SK-MEL-2,> 100 µM (inactive)
same,GI50,SK-MEL-5,> 100 µM (inactive)
same,GI50,SK-OV-3,> 100 µM (inactive)
same,GI50,SN12C,> 100 µM (inactive)
same,GI50,SNB-19,> 100 µM (inactive)
same,GI50,SNB-75,> 100 µM (inactive)
same,GI50,SNB-78,> 100 µM (inactive)
same,GI50,SR,> 100 µM (inactive)
same,GI50,SW-620,> 100 µM (inactive)
same,GI50,TK-10,> 100 µM (inactive)
same,GI50,U-251,> 100 µM (inactive)
same,GI50,UACC-257,> 100 µM (inactive)
same,GI50,UACC-62,> 100 µM (inactive)
same,GI50,UO-31,> 100 µM (inactive)
CCC[C@H]1O[C@@H]2CC(=O)O[C@@H]2C2=C1C(=O)C=CC2=O,GI50,786-0,16.3 µM (inactive)
same,GI50,A498,34.2 µM (inactive)
same,GI50,A549,32.6 µM (inactive)
same,GI50,ACHN,13.1 µM (inactive)
same,GI50,CAKI-1,19.2 µM (inactive)
same,GI50,CCRF-CEM,3.92 µM (inactive)
same,GI50,COLO 205,3.38 µM (inactive)
same,GI50,DLD-1,17.7 µM (inactive)
same,GI50,DMS-273,13.6 µM (inactive)
same,GI50,EKVX,> 44.1 µM (inactive)
same,GI50,HCC 2998,> 43.1 µM (inactive)
same,GI50,HCT-116,18 µM (inactive)
same,GI50,HCT-15,15.3 µM
same,GI50,HL-60,5.7 µM (inactive)
same,GI50,HOP-18,18 µM (inactive)
same,GI50,HOP-62,> 54.1 µM (inactive)
same,GI50,HOP-92,2.7 µM (inactive)
same,GI50,HT-29,22 µM (inactive)
same,GI50,IGROV-1,18 µM (inactive)
same,GI50,K562,5.09 µM (inactive)
same,GI50,KM-20L2,21.4 µM (inactive)
same,GI50,KM12,23.6 µM (inactive)
same,GI50,LOX IMVI,21 µM (inactive)
same,GI50,LXFL 529,15.6 µM (inactive)
same,GI50,M14,18.7 µM (inactive)
same,GI50,M19-MEL,20.3 µM (inactive)
same,GI50,MOLT-4,3.32 µM (inactive)
same,GI50,Malme-3M,18.2 µM (inactive)
same,GI50,NCI-H226,13.7 µM (inactive)
same,GI50,NCI-H23,13.6 µM (inactive)
same,GI50,NCI-H460,> 100 µM (inactive)
same,GI50,NCI-H522,2.2 µM (inactive)
same,GI50,OVCAR-3,14.1 µM (inactive)
same,GI50,OVCAR-4,16.3 µM (inactive)
same,GI50,OVCAR-5,19.7 µM (inactive)
same,GI50,OVCAR-8,> 47.4 µM (inactive)
same,GI50,RPMI-8226,25.6 µM (inactive)
same,GI50,RXF 393,16 µM (inactive)
same,GI50,SF-268,12.9 µM (inactive)
same,GI50,SF-295,25.4 µM (inactive)
same,GI50,SF-539,19.4 µM (inactive)
same,GI50,SK-MEL-28,17.2 µM (inactive)
same,GI50,SK-MEL-2,20.3 µM (inactive)
same,GI50,SK-MEL-5,20.1 µM (inactive)
same,GI50,SK-OV-3,> 39.9 µM (inactive)
same,GI50,SN12C,18.1 µM (inactive)
same,GI50,SNB-19,> 60.4 µM (inactive)
same,GI50,SNB-75,17 µM (inactive)
same,GI50,SNB-78,23.3 µM (inactive)
same,GI50,SR,16.7 µM (inactive)
same,GI50,SW-620,11.2 µM (inactive)
same,GI50,TK-10,> 42.8 µM (inactive)
same,GI50,U-251,> 39.4 µM (inactive)
same,GI50,UACC-257,18.9 µM (inactive)
same,GI50,UACC-62,17.9 µM (inactive)
same,GI50,UO-31,18.5 µM (inactive)

# Reference: ChEMBL document CHEMBL1201862, “PubChem BioAssay data set” (2004)
